Consider 72 compounds from the RepoRT retention time repository (doi:10.1016/j.jhazmat.2019.121712).

This data set can be described thus: Thermo Scientific Acclaim RSLC 120 C18, 100 × 2.1 mm, 2.2 µm, 30 °C; A: 90% water + 10% methanol + 0.01% formic acid + 5 mM ammonium formate; B: methanol + 0.01% formic acid + 5 mM ammonium formate; gradient (min/%B) 0.1/1 3/39 14/99.9 16/99.9. Particulars: stereoisomer not certain.
In the case of `CC(C)C(O)(C(=O)OCC1=CCN2CCC(O)C12)C(C)O` (configuration not stated), the LC retention time was 3.65 min.

As for `c1ccc(CC2=NCCN2)cc1`, the LC retention time was determined as 3.28 min.

For `COc1cc(C=C2CCCC(=Cc3ccc(O)c(OC)c3)C2=O)ccc1O`, the LC retention time is 9.59 min.

As for `CCOP(=S)(OCC)ON=C(C#N)c1ccccc1`, the LC retention time is 11.2 min.

On to `CC1CC2C(C(O)CC3(C)C2CCC3(O)C(=O)CO)C2(C)C=CC(=O)C=C12` (configuration not stated), for which the LC retention time turned out to be 8.75 min.

Consider `CN1C(=O)CCC1c1cccnc1` (configuration not stated), for which the LC retention time turned out to be 3.75 min.

As to `CCCCCc1cc(O)c2c(c1)OC(C)(C)c1ccc(C)cc1-2`, the LC retention time was 13.7 min.

On to `CON=C(C(=O)NC1C(=O)N2C(C(=O)[O-])=C(C[n+]3cccc4c3CCCC4)CSC12)c1csc(N)n1` (configuration not stated), for which the LC retention time is 3.76 min.

For the compound `CCC1(c2cccc(O)c2)CCCCN(C)C1` (configuration not stated), the LC retention time was found to be 4.74 min.

For the compound `COC(=O)C(Cc1ccccc1)NC(=O)C(CC(=O)O)NCCC(C)(C)C` (configuration not stated), the LC retention time amounted to 8.83 min.

For `C=C(C)C1CCC(C)=CC1c1c(O)cc(CCCCC)cc1O` (configuration not stated), the LC retention time came to 12.7 min.

On to `COC(=O)Nc1nc2ccc(S(=O)c3ccccc3)cc2[nH]1` (configuration not stated), for which the LC retention time came to 6.66 min.

Turning to `CCCOC(C(=O)OC1CCN(C)CC1)(c1ccccc1)c1ccccc1`, the LC retention time turned out to be 9.36 min.

For `CN1C2CCC1CC(OC(=O)C(O)c1ccccc1)C2` (configuration not stated), the LC retention time was 3.73 min.

For `CC(N)Cc1ccccc1` (configuration not stated), the LC retention time was 4.16 min.

For the compound `OCCOCCN1CCN(C2=Nc3ccc(O)cc3Sc3ccccc32)CC1`, the LC retention time came out at 4.99 min.

Regarding `CC(C)(C)Nc1nc(N)[nH]c(=O)n1`, the LC retention time is 3.99 min.

For `CCN(C(=O)SCc1ccccc1)C(C)C(C)C` (configuration not stated), the LC retention time turned out to be 12.2 min.

In the case of `CNC(=O)CSP(=O)(OC)OC`, the LC retention time was found to be 3.35 min.

`CC(Cn1cnc2c(N)ncnc21)OCP(=O)(O)O` (configuration not stated): the LC retention time came to 2.69 min.

With `C=CCc1ccccc1OCC(O)CNC(C)C` (configuration not stated), the LC retention time came to 6.71 min.

For the compound `CN(Cc1cnc2nc(N)nc(N)c2n1)c1ccc(C(=O)NC(CCC(=O)O)C(=O)O)cc1` (configuration not stated), the LC retention time stood at 3.96 min.

Consider `CCCc1ccc(C(=O)c2cn(CCC)c3ccccc23)c2ccccc12`, for which the LC retention time came to 12.7 min.

For the compound `CNCC(O)c1cccc(NS(C)(=O)=O)c1` (configuration not stated), the LC retention time worked out at 2.54 min.

`CCC(C)C(=O)OC1CC(C)C=C2C=CC(C)C(CCC3CC(O)CC(=O)O3)C21` (configuration not stated): the LC retention time was 12 min.

Take `CC(O)CN1CCN(CC(=O)O)CCN(CC(=O)O)CCN(CC(=O)O)CC1` (configuration not stated): the LC retention time was determined as 1.31 min.

On to `CC(C)N1C(=O)N(c2ccccc2)CSC1=NC(C)(C)C`, for which the LC retention time worked out at 12.2 min.

`CC(=O)Nc1ccc(OC(=O)c2ccccc2OC(C)=O)cc1`: the LC retention time turned out to be 7.41 min.

Turning to `CCNc1nc(NC(C)C)nc(SC)n1`, the LC retention time came to 9.16 min.

Regarding `Cc1cccc(Nc2ccccc2C(=O)O)c1C`, the LC retention time stood at 11.6 min.

As for `COC(=O)C(NC(=O)c1nn(CC2CCCCC2)c2ccccc12)C(C)C` (configuration not stated), the LC retention time amounted to 12.4 min.

Turning to `CCN(C(C)=O)c1cccc(-c2ccnc3c(C#N)cnn23)c1`, the LC retention time was determined as 6.61 min.

In the case of `COc1cc2[nH]c(C)c(CCN3CCN(c4ccccc4)CC3)c2cc1OC`, the LC retention time came out at 5.76 min.

`CC#CCn1c(N2CCCC(N)C2)nc2c1c(=O)n(Cc1nc(C)c3ccccc3n1)c(=O)n2C` (configuration not stated): the LC retention time worked out at 6.01 min.

For `CN(C)CCCN1c2ccccc2CCc2ccccc21`, the LC retention time is 8.08 min.

Turning to `O=C1CC2(CCCC2)CC(=O)N1CCCCN1CCN(c2ncccn2)CC1`, the LC retention time turned out to be 5.78 min.

Turning to `COC(=O)C1=COC(C)C2CN3CCc4c([nH]c5ccccc45)C3CC12` (configuration not stated), the LC retention time stood at 6.66 min.

As to `COc1ccc(CCN)cc1OC`, the LC retention time is 3.53 min.

Regarding `CC12C=CC(=O)C=C1CCC1C2CCC2(C)C(O)CCC12` (configuration not stated), the LC retention time turned out to be 9.03 min.

Regarding `CC1C(=O)OC2CCN3CC=C(COC(=O)C(C)(O)C1(C)O)C23` (configuration not stated), the LC retention time came out at 2.92 min.

As to `O=c1[nH]cnc2[nH]ncc12`, the LC retention time turned out to be 2.19 min.

With `COc1ccc(Cc2nccc3cc(OC)c(OC)cc23)cc1OC`, the LC retention time was 6.27 min.

With `CNC(=O)Oc1cccc(C)c1`, the LC retention time came to 6.59 min.

`C=CC=CCC1=C(C)C(OC(=O)C2C(C=C(C)C(=O)OC)C2(C)C)CC1=O` (configuration not stated): the LC retention time is 11.7 min.

`CCC1=C(C)CN(C(=O)NCCc2ccc(S(=O)(=O)NC(=O)NC3CCC(C)CC3)cc2)C1=O` (configuration not stated): the LC retention time worked out at 10.7 min.

As to `CCNc1nc(NC(C)(C)C)nc(SC)n1`, the LC retention time was found to be 10.2 min.

`CCN1CCCC1CNC(=O)c1cc(S(N)(=O)=O)ccc1OC` (configuration not stated): the LC retention time was determined as 2.94 min.

Consider `Cc1ccc(C(=CCN2CCCC2)c2ccccn2)cc1`, for which the LC retention time was determined as 6.28 min.

As to `O=C(O)C1C2CCC(O2)C1C(=O)O` (configuration not stated), the LC retention time amounted to 3.2 min.

For the compound `CNC(C)CC1CCCCC1` (configuration not stated), the LC retention time came out at 5.74 min.

On to `CCS(=O)CCSP(=O)(OC)OC` (configuration not stated), for which the LC retention time worked out at 3.98 min.

For `NC(=O)N1c2ccccc2CC(O)c2ccccc21` (configuration not stated), the LC retention time is 5.94 min.

Turning to `NS(=O)(=O)c1ccc(N2CCCCS2(=O)=O)cc1`, the LC retention time worked out at 4.11 min.

Take `CON=C1CC2(CC3CC(CC=C(C)CC(C)C=CC=C4COC5C(O)C(C)=CC(C(=O)O3)C45O)O2)OC(C(C)=CC(C)C)C1C` (configuration not stated): the LC retention time worked out at 13.8 min.

`O=c1ccc2cc(OC3OC(CO)C(O)C(O)C3O)c(O)cc2o1` (configuration not stated): the LC retention time worked out at 3.69 min.

Take `O=C1OC(=O)c2ccccc21`: the LC retention time came to 9.58 min.

On to `CNC(=O)N(C)c1nnc(C(C)(C)C)s1`, for which the LC retention time is 7.25 min.

As to `c1ccc2c(c1)Sc1ccccc1N2CC1CN2CCC1CC2` (configuration not stated), the LC retention time stood at 8.29 min.

Regarding `CN1C2CCC1CC(OC(c1ccccc1)c1ccccc1)C2` (configuration not stated), the LC retention time amounted to 7.97 min.

With `CC(C(=O)c1ccccc1)N(C)C` (configuration not stated), the LC retention time came out at 3.64 min.

As for `CCC1OC(=O)C(C)C(OC2CC(C)(OC)C(O)C(C)O2)C(C)C(OC2OC(C)CC(N(C)C)C2O)C(C)(O)CC(C)C(=O)C(C)C(O)C1(C)O` (configuration not stated), the LC retention time was determined as 8 min.

For `Nc1cc(-c2ccncc2)c[nH]c1=O`, the LC retention time was determined as 2.88 min.

For `NC(=O)C1CCCN1` (configuration not stated), the LC retention time came to 1.31 min.

`OCCOCCN1CCN(C2=Nc3ccccc3Sc3ccccc32)CC1`: the LC retention time was 7.26 min.

As for `CCNC1C2CCC(C2)C1c1ccccc1` (configuration not stated), the LC retention time was found to be 6.08 min.

Consider `O=C(Nc1ccc(C(=O)O)c(O)c1)c1ccccc1`, for which the LC retention time was determined as 5.47 min.

With `CCC(C)c1ccccc1OC(=O)NC` (configuration not stated), the LC retention time came out at 9.05 min.

With `COc1ccc(N)cc1N`, the LC retention time came out at 2.37 min.

Turning to `CCN(CC)C(=O)N1CCN(C)CC1`, the LC retention time was 3.16 min.

With `Cc1nnc(-c2ccccc2)c(=O)[nH]1`, the LC retention time was 5.29 min.

For the compound `CCSc1cc(OC)c(CCN)cc1OC`, the LC retention time stood at 5.88 min.

On to `CN=C(NC#N)NCCSCc1nc[nH]c1C`, for which the LC retention time is 3.24 min.
